Test results as given in patent US20230398233A1, “OCULAR ANTIBODY-DRUG CONJUGATES” (ADS THERAPEUTICS LLC, priority 2020, published 2023).

Assay: Hydrolysis in water control (phosphate buffer)
Details: water control (method: phosphate buffer), 37° C., 0-72 h
Protocol: The 2 μL working solution of either the test compound or the control compound was added and mixed. The samples were incubated at 37° C. and the reaction was stopped by adding 200 μL of quenching solution at 0, 1, 4, 8, 12, 24, 48 and 72 and vortexed vigorously for −1 min. The solution was then centrifuged at 4,000 rpm at 4° C. for 15 min. The 100 μL of the supernatant was removed and mixed with 100 μL distilled water for LC-MS/MS analysis. The 10 μL standard curve working solution was spiked to 190 μL phosphate solution, The 200 μL of quenching solution was added to each standard curve wells. The blank sample was prepared by adding 2 μL of MeOH/DMSO solvent to replace the working solution. The double blank samples was prepared by adding 2 μL of MeOH/DMSO solvent to replace the working solution and by quenching the matrix with acetonitrile/MeOH.

T ½ in water control: No hydrolysis
Substance: mPEG-PrA-Dexa [Compound 2]
